Laboratory results reported in US20110275569A1, “PROTEASES TARGETING AGENTS” (CONSIGLIO NAZIONALE DELLE RICERCHE, priority 2008, published 2011).
Like-named read-outs stand apart in the source and are kept apart here.

Experiments:
[1] = target: T1, porcine acylamino-acid-releasing enzyme (AARE or APEH) (Sus scrofa, UniProt P19205); assay: Inhibition of porcine acylamino-acid-releasing enzyme; format: biochemical; settings: for IC50: IC50 towards porcine acylamino-acid-releasing enzyme (AARE or APEH)
T1 sequence (P19205 1-732): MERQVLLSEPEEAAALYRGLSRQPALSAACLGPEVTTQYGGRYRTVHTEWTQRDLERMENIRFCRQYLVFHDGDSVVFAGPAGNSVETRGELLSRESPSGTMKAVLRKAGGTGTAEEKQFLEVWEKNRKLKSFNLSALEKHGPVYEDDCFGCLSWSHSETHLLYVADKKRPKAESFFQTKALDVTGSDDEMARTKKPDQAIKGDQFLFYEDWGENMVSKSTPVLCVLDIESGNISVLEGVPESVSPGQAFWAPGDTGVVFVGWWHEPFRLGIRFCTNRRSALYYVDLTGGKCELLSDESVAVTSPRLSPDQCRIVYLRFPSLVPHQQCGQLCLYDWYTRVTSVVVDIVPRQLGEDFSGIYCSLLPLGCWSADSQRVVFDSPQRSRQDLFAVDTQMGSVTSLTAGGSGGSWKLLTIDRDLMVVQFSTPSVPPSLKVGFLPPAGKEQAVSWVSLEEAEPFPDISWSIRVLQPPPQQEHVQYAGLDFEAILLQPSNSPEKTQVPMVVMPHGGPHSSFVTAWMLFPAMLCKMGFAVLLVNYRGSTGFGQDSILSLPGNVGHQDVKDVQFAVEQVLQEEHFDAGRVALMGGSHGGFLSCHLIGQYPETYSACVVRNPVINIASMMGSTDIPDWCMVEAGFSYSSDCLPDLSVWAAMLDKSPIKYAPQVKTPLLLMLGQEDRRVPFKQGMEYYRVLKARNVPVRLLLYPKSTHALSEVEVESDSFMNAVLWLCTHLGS
Description: The SsCEI 1 to 4 reported in the Example 1 were tested for ability to inhibit the activity of human acylamino-acid-releasing enzyme. Stock solutions (1 mM) of each lyophilized compounds were prepared in DMSO 100% and stored at 4° C. Inhibition effectiveness of each compound was determined by measuring enzyme activity both in the presence and absence of compounds. The activity of human acylamino-acid-releasing enzyme (AARE) was measured by using the chromogenic substrate N-acetyl-Ala-pNA (Bachem) (40 μM in DMSO 100%) as described above. […] Then, the substrate was added to the incubation mixture and the hydrolysis was performed for 20 min at 37° C. (FIG. 5). The data were fitted with the GraphPad Prism software. This analysis allowed the determination of IC50 values, which represent the concentrations at which the inhibition reached 50%. […] The IC50 values (See Table IV), obtained as average of 3-5 separate determinations, confirmed the utility of the compounds +of the present invention as effective AARE inhibitors.
The experiment described in example 7 has been performed using the porcine acylamino-acid-releasing enzyme. […] The efficiency of SsCEI 4 can be ascribed to the APEH preference for an alanine residue, with respect to the leucine, at the P1 site, assuming that the SsCEI-APEH association occurs in a substrate-like manner

[2] = tested on: proteasome in Caco-2 (human colon carcinoma) cells; assay: Proteasome activity in Caco-2 cells treated with peptides for 48 h; format: cell-based; settings: for proteasomal activity in Caco-2 cells (in words): differentiated Caco-2 cells
Description: (§1) The proteasome down-regulation via APEH inhibition has been investigated. On the basis of the hypothesis that APEH can be used as a target to indirectly control/modulate proteasome functions in tumoral cells, an in vitro approach using the SsCEI 2, SsCEI 3 and SsCEI 4 peptides in the Caco-2 (human colon carcinoma) cell line has been carried out. To this end, differentiated Caco-2 cells were treated with peptides or with a specific proteasome inhibitor (MG132), for 48 h. […] The results were compared to those obtained in the cell-free assays, where a purified proteasome fraction was used.

[3] = tested on: APEH in Caco-2 cells; assay: APEH activity in Caco-2 cells treated with peptides; format: cell-based, human; settings: 48 h, dose-dependent decrease
Description: as §1

[4] = tested on: Caco-2 cells; assay: Cytotoxicity by lactate dehydrogenase (LDH) activity in cell-culture media; format: cell-based, human; settings: up to the highest concentration used (200 μM)
[5] = tested on: proteasome; assay: Cell-free proteasome assay with purified proteasome fraction; format: biochemical
Description: as §1

[6] = tested on: caspase-3; assay: Caspase-3 activity after peptide treatment of Caco-2 cells; format: cell-based, human
From the text: To elucidate the molecular mechanisms associated with the inhibition of the proteasome, the effects of treatments with the SsCEI 2 and SsCEI 4 peptides on the activation of caspases have been evaluated.

Substance	IC50 [1]	type of inhibition of porcine APEH ([1]; Lineweaver-Burk plot)	Ki ([1]; porcine APEH, Lineweaver-Burk plot, read-out: Ki APEH)	residual proteasome activity with respect to untreated cultures ([2]; Caco-2 cells, dose-dependent decrease)	proteasomal activity in Caco-2 cells (in words) [2]	residual APEH activity with respect to untreated cultures [3]	cytotoxic effects, LDH activity levels in cell-culture media [4]	proteasome activity in cell-free systems [5]	caspase-3 activity [6]	Ki [1]
H-TILAEIKNINAD-NH2 [SsCEI 4, TILAEIKNINAD]	35 ± 0.8 µM	competitive inhibitor	4 ± 0.8 µM	up to 45%	markedly reduced proteasomal activity	up to 45%	not associated with any cytotoxic effects	did not affect proteasome activity	increased in a dose dependent manner	
H-TILLEIKNINAD-NH2 [SsCEI 2, TILLEIKNINAD]					markedly reduced proteasomal activity		not associated with any cytotoxic effects			
H-YAIDTILAEIKNINAD-NH2 [SsCEI 3, YAIDTILAEIKNINAD]	20 ± 0.4 µM				unable to affect proteasome					20 ± 0.4 µM
